Data set [1] can be described thus: Inhibition of ERK phosphorylation in human A-375 cells incubated for 3 hrs by DELFIA assay. As to conditions: A-375, 3 h. It is filed as cell-based.
A short description of data set [2]: Octanol-water partition coefficient, logP of the compound by LC-MS analysis. It counts as physicochemical.
The target of data set [3] is Cytochrome P450 3A4 (Homo sapiens, UniProt P08684). Briefly: Inhibition of CYP3A4 (unknown origin). It counts as ADME.
The target in data set [4] is High affinity nerve growth factor receptor (Homo sapiens, UniProt P04629). Briefly: Inhibition of wild-type human partial length TRKA (G475 to G790 residues) expressed in mammalian expression system by Kinomescan method.
The nature of data set [5]: Oral bioavailability in Wistar rat at 10 mg/kg measured up to 24 hrs by LC-MS/MS analysis. It counts as ADME, organism-based. The following applies: in vivo, 10 mg/kg, 24 h.
Data set [6] has as its system Mus musculus. Briefly: In vivo inhibition of ERK phosphorylation in human A-375 cells xenografted CD1 mouse at 30 mg/kg bid via oral gavage measured after 8 hrs by ELISA method. It counts as functional, organism-based. For orientation: A xenograft is tissue or cells of one species grown in another, often human tumour cells in immunodeficient mice.
Data set [7] deals with Mus musculus. Briefly: In vivo inhibition of MEK phosphorylation in human A-375 cells xenografted CD1 mouse at 30 mg/kg bid via oral gavage measured after 8 hrs by ELISA method. It is filed as functional, organism-based.
In data set [8] the test system is Mus musculus. The experiment in a line: In vivo inhibition of DUSP6 in human A-375 cells xenografted CD1 mouse at 30 mg/kg bid via oral gavage measured after 8 hrs by RT-PCR method. It is filed as functional, organism-based.
The subject of data set [9] is Mus musculus. Briefly: In vivo inhibition of SPRY4 in human A-375 cells xenografted CD1 mouse at 30 mg/kg bid via oral gavage measured after 8 hrs by RT-PCR method. It is filed as functional, organism-based.
Data set [10] can be described thus: Toxicity in CD1 mouse xenografted with human A-375 cells assessed as body weight loss at 30 mg/kg bid via oral gavage. It counts as organism-based. As to conditions: in vivo.
Data set [11] in a line: Volume of distribution at steady state in CD1 mouse at 3 mg/kg, iv measured up to 24 hrs by LC-MS/MS analysis. It counts as ADME, organism-based. As to conditions: in vivo, read-out: Vdss.
A short description of data set [12]: AUC in CD1 mouse at 10 mg/kg, po measured up to 24 hrs by LC-MS/MS analysis. It counts as ADME, organism-based. Also noted: route oral, dose 10 mg/kg, time <=24. As to conditions: in vivo.
A short description of data set [13]: Oral bioavailability in CD1 mouse at 10 mg/kg measured up to 24 hrs by LC-MS/MS analysis. It counts as ADME, organism-based. The following applies: in vivo.
Data set [14] is described as follows: Volume of distribution at steady state in Wistar rat at 3 mg/kg, iv measured up to 24 hrs by LC-MS/MS analysis. The following applies: in vivo, read-out: Vdss. It counts as ADME, organism-based.
Data set [15] in a line: AUC in Wistar rat at 10 mg/kg, po measured up to 24 hrs by LC-MS/MS analysis. It counts as ADME, organism-based. Also noted: route oral, dose 10 mg/kg, time <=24. The following applies: in vivo.
The nature of data set [16]: Volume of distribution at steady state in Beagle dog at 3 mg/kg, iv measured up to 24 hrs by LC-MS/MS analysis. It is filed as ADME, organism-based, Canis lupus familiaris. The following applies: in vivo, read-out: Vdss.
Data set [17] in a line: AUC in Beagle dog at 10 mg/kg, po measured up to 24 hrs by LC-MS/MS analysis. It is filed as ADME, organism-based, Canis lupus familiaris. Also noted: route oral, dose 10 mg/kg, time <=24. The following applies: in vivo.
Data set [18] can be described thus: Oral bioavailability in Beagle dog at 10 mg/kg measured up to 24 hrs by LC-MS/MS analysis. It is filed as ADME, organism-based, Canis lupus familiaris. The following applies: in vivo.
In data set [19] the target is Mitogen-activated protein kinase 1 (Homo sapiens) (UniProt P28482). Briefly: Inhibition of full length human ERK2 using LCB-FFKNIVTPRTPPP as substrate preincubated for 45 mins followed by substrate addition and measured after 90 mins. As to conditions: time 135.0 min.
Data set [20] deals with Serine/threonine-protein kinase B-raf (Homo sapiens), P15056 [V600E]. The experiment in a line: Inhibition of full length human BRAF V599E mutant using LCB-FFKNIVTPRTPPP as substrate preincubated for 45 mins followed by substrate addition and measured after 90 mins. As to conditions: time 135.0 min.
Data set [21] concerns the target Dual specificity mitogen-activated protein kinase kinase 1 (Homo sapiens, UniProt Q02750). As to conditions: time 120.0 min.

As a reminder, the EC50 is the concentration that produces a half-maximal response. A higher EC50 goes with weaker potency. For orientation: logP means a log measure of how a compound divides between an organic and an aqueous phase. A low value points to lower lipophilicity. For orientation: IC50 means the concentration that gives 50% inhibition. A word on the AUC: it is concentration integrated over time.

Active and inactive are the calls of the source. No cut-off for these calls is given here.

Sequence of Dual specificity mitogen-activated protein kinase kinase 1 (Q02750 whole entry): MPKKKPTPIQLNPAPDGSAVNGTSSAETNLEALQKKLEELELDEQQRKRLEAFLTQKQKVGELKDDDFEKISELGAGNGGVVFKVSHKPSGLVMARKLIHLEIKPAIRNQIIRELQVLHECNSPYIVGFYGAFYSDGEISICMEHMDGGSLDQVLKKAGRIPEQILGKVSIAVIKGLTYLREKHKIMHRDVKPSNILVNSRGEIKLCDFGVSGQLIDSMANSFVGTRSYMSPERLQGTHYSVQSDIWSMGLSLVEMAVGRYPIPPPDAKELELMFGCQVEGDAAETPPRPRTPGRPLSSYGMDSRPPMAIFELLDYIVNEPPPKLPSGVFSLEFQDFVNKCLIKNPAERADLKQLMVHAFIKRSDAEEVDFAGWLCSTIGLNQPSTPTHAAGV
Sequence of Cytochrome P450 3A4 (P08684 whole entry, the tested form may be a part): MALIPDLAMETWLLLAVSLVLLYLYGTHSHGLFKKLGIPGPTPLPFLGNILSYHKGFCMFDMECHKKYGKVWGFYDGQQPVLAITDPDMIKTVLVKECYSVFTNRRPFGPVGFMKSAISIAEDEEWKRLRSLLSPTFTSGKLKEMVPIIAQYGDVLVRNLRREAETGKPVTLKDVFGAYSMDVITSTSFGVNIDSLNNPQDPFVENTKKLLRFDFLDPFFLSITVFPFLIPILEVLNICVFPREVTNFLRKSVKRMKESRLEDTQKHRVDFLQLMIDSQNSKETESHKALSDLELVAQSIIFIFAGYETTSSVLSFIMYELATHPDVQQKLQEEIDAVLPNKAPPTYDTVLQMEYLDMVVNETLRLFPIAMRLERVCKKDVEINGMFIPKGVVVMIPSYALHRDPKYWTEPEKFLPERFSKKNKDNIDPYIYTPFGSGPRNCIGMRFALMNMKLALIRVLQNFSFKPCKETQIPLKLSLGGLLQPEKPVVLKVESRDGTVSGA
Sequence of High affinity nerve growth factor receptor (P04629 whole entry, the tested form may be a part): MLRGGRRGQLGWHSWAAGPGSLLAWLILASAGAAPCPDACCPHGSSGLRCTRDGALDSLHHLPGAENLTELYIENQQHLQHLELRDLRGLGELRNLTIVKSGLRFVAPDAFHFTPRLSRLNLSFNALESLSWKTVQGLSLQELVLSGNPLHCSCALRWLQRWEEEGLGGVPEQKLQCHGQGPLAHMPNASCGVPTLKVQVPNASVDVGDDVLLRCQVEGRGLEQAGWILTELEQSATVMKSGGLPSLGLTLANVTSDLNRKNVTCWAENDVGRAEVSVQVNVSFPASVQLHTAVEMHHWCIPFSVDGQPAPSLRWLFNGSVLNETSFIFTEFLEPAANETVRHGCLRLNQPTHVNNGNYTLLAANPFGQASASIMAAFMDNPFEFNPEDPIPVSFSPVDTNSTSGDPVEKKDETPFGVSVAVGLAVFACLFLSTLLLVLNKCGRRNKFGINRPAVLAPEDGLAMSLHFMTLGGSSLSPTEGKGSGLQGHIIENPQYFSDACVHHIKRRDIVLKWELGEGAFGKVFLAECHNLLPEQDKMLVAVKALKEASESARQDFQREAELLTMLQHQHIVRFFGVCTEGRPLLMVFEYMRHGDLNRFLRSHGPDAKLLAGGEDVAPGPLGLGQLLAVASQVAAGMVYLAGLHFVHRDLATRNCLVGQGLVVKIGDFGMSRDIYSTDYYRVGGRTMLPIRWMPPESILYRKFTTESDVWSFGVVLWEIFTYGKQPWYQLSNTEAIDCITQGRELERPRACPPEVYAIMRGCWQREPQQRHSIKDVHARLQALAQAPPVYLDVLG
Sequence of Mitogen-activated protein kinase 1 (Homo sapiens) (P28482 whole entry): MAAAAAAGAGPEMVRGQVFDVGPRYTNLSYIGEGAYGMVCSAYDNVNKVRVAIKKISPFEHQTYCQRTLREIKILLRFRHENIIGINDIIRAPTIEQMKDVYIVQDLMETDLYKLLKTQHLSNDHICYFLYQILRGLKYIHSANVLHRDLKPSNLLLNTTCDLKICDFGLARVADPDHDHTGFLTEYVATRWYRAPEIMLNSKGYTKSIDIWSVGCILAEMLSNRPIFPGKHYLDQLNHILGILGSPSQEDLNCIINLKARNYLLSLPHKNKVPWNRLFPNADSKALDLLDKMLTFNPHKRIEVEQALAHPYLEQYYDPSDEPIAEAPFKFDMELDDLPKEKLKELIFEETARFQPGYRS
Sequence of Serine/threonine-protein kinase B-raf (Homo sapiens), P15056 [V600E] (P15056 whole entry V600E): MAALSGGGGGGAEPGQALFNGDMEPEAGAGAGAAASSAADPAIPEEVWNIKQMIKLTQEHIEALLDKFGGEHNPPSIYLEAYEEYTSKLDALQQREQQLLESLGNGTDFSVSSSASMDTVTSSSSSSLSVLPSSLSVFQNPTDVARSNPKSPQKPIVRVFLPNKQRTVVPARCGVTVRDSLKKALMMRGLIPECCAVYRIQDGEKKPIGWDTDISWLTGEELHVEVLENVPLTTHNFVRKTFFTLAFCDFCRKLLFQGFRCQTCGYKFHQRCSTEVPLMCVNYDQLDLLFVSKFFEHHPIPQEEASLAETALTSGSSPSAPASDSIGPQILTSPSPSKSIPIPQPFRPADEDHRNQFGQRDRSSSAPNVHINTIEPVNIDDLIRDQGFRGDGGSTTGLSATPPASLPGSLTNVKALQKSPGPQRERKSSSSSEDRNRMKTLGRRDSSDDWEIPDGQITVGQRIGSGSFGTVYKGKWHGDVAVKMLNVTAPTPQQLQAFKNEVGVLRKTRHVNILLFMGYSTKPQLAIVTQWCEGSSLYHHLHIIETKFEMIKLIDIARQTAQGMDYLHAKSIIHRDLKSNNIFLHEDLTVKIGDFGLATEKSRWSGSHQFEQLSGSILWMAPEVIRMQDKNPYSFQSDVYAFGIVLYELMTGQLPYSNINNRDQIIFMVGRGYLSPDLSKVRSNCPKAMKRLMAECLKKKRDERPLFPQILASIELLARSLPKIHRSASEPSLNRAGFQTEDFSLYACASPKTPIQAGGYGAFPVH

`Cc1nc2cnc3cc(F)c(-c4ccc(Oc5ncccn5)cc4Cl)cc3c2n1[C@H]1CCN(C(=O)CO)C[C@@H]1F` came in with an EC50 in data set [1] of 5 µM. The molecule further came in with a logP in data set [2] of 1.6. Also, the half-maximal inhibitory concentration (IC50) amounted to 7.7 µM in [3] and 0.025 µM in [4]. The F in [5] is recorded as 65%; in [13], 44%; in data set [18], 100%. Moreover, the outcome in data set [6], in data set [7], in data set [8] and in data set [9] was Active. In addition, the Activity result in data set [10] was “Non-Toxic”. The Vd in [11] is 2.6 L/kg; in data set [14], 2 L/kg; in [16], 1.8 L/kg. Also, the AUC was 0.4 µM·h in data set [12], 0.6 µM·h in data set [15] and 1.4 µM·h in [17]. Besides, the inhibition result in data set [19] and in data set [20] was “inactive” in each case. The molecule further came in with a T1/2 in data set [21] of 1.62 h.

The values above are taken from ChEMBL document CHEMBL5046286, “Discovery of MAP855, an Efficacious and Selective MEK1/2 Inhibitor with an ATP-Competitive Mode of Action” (J Med Chem, 2022).
